The values below come from patent publication US20250282714A1, “COMPOSITIONS FOR AND METHODS OF MODULATING RNA STABILITY” (Duke University, priority 2022, published 2025).

“Also recorded” adds a separate entry of the source.

Assay [1] deals with MALAT1 triple helix. As to the kind of experiment: RiboGreen indicator displacement assay (IDA). Type of assay: binding, human. The note with it: for affinity for the MALAT1 triple helix (in words): RiboGreen IDA. As to the method: The protocol was adapted from a previously reported procedure. (Donlic A, et al. (2020) Nucleic Acids Res. 48(14):7653-7664). A serial dilution of the MALAT1 triple helix RNA was performed in HEPES buffer (20 mM HEPES-KOH, 52.6 mM KCl, 0.1 mM MgCl2, pH=7.4) in a 96 well plate in triplicate. […] of each dilution were transferred to a 384 well plate followed by […] of a 500 nM solution of RiboGreen dye in the same buffer (Invitrogen™). The plates were excited at 487 nm (8 nm slit) and emission was recorded at 530 nm (8 nm slit, focal height 11.3 mm) using a CLARIOstar plate reader (BMG labtech). The affinity of the dye for the RNA construct was determined by fitting the raw fluorescence in GraphPad Prism version 8.3.1 for Macintosh (GraphPad Software, La Jolla California USA, (www.graphpad.com)) by fitting to the Log[Agonist] vs. response—variable slope model that using Equation (1) below.
where Y is normalized % change in fluorescence intensity, X is RNA concentration, Bottom is lowest fluorescence % change and Top is highest fluorescence % change. Affinity of the dye for the RNA construct was used as the ideal RNA concentration (174 nM) for small molecule titrations.
A serial dilution of small molecule (0, 0.5 μM, 1.0 μM, 2.5 μM, 5 μM, 7.5 μM, 10.0 μM, 12.5 μM, 25 μM, 50 µM, 75 μM, 100 μM, 125 μM, 150 μM, 250 μM, 500 µM) was performed in HEPES buffer (20 mM HEPES-KOH, 52.6 mM KCl, 0.1 mM MgCl2, pH=7.4) in a 96 well plate in triplicate. Then, 8 μL of each dilution were transferred to a 384 well plate, followed by 8 μL of a 174 nM solution of MALAT1 RNA and […] of RiboGreen™ (Invitrogen™). The RNA was previously annealed by heating to 95° C. for 5 minutes and cooling to 0° C. on ice for 30 minutes. The 384 well plates were shaken for 5 minutes, centrifuged at 4000 rpm for 1 minute, and incubated in the dark for 20 minutes. The plates were excited at 487 nm (8 nm slit) and emission was read at 525 nm (8 nm slit, focal height […]) using a CLARIOstar plate reader (BMG Labtech). Percent fluorescence indicator displacement (% FID) was calculated by subtracting and, subsequently, dividing by the blank wells with RNA-dye complex and no small molecule as shown in Equation (2).
Where Fo is the fluorescence of the blank well with RNA+dye and no small molecule and F is the fluorescence of the well with all three components (RNA+dye+small molecule).
Each technical triplicate was averaged, and the resulting FID values were averaged between three independent experiments. The binding curve and Log (CD50) value was obtained by using a non-linear fit curve (Log[Agonist] vs. response) with variable slope at four parameters (GraphPad Prism Software version for Macintosh 8.3.1, La Jolla, California, USA (www.graphpadprism.com)) as shown in Equation 1. Reported values are averages of three independent experiments=standard deviation.
Given the structural differences between secondary and tertiary structures, where more continuous and complex base-pairing occurs, the design and optimization of an RNA triple helix IDA amenable to HTS was the first focused on. The utility of RiboGreen™ dye was confirmed as an indicator. The RiboGreen™ structure is proprietary, and stoichiometry is thus unconfirmed. Upon assay optimization, the 21-member library was screened using a 16-point titration in three independent replicates (FIG. 2A, FIG. 12A-FIG. 12U).

In assay [2] the test system is MALAT1 triple helix. Description: Differential scanning fluorimetry (DSF), thermal stability. The class given is binding, human. The note with it: for effect on MALAT1 triplex thermal stability (in words): DSF. As for the experimental part: Differential scanning fluorimetry experiments were performed as previously reported. (Donlic A, et al. (2020) Nucleic Acids Res. 48(14):7653-7664). All experiments were performed in white 96 well plates in a LightCycler® 96 (Roche). In a typical experiment, 4 μM of RNA was annealed in the same buffer used for indicator displacement assays (20 mM HEPES-KOH, 52.6 mM KCl, 0.1 mM MgCl2, pH=7.4) by heating at 95° C. for 3 minutes, snap-cooling on ice for 10 minutes, and leaving the solution at room temperature for 1 hr. Then, 42 μL of this solution was aliquoted to wells and 5 μM of ligand was added (2.5 μL of water, 2.0 μL of DMSO, 0.5 μL of 500 μM small molecule stock). The mixture was left to incubate at room temperature for 5 minutes, after which 3 μL of a 20 μM Quant-iT™ RiboGreen™ (ThermoFisher Scientific) dye stock solution in appropriate buffer was added to each well. The 96 well plate was then sealed with an optically clear foil and centrifuged for 1 minute at 4000 rpm prior to being placed in the instrument. The light cycler program was created by selecting the melting curve method; fluorescence intensity was monitored using the SYBR Green I/HRM dye filter combination (465-510 nm) from 37-98° C. at a ramp rate of 0.01° C./second with 150 acquisitions per° C. Melting profiles were obtained by Tm analysis in the LightCycler® 96 software (SW 1.1).
The MALAT1 triple helix is known to confer stability to the full-length transcript and protect it from RNase-mediated degradation, ultimately resulting in transcript accumulation and aggregation in nuclear speckles. (Brown J A, (2020) WIREs RNA. 11(6):e1598; Wilusz J E, et al. (2012) Genes Dev. 26(21):2392-2407; Brown J A, et al. (2014) Nat Struct Mol Biol. 21(7):633-640; Tycowski K T, et al. (2016) Cell Rep. 15(6):1266-1276). To better understand how the diminazene focused library affects the MALAT1 triplex stability, the entire library was evaluated via differential scanning fluorimetry (DSF) (FIG. 5A). This method allows for rapid assessment of small molecule effects on nucleic acid thermal stability (Silvers R, et al. (2015) Chembiochem. 16(7):1109-1114) in a 96-well plate format, substantially reducing the time and cost associated with traditional UV-melting experiments.
The bi-phasic melting profile distinctive of triple helices is attributed to an initial melting of the Hoogsteen triple base pairs followed by dissociation of Watson-Crick-Franklin base pairs (FIG. 16A-FIG. 16E). (Pilch D S, et al. (1995) Biochemistry. 34(49):16107-16124). At an equimolar ratio of RNA:small molecule, a range of thermal stabilization of the first (Tm1) was observed, but not the second (Tm2) melting peak (FIG. 5A, FIG. 13A-FIG. 13Z). At increasing small molecule concentration, a dose-dependent increase in ΔTm1 but not in ΔTm2 was observed, indicating small molecule interactions in the triplex region and not in the upper stem region (FIG. 15).
A general note: DSF heats the sample and reads unfolding from a dye or from intrinsic fluorescence.

The subject of assay [3] is MALAT1 triple helix. Description: RNase A enzymatic degradation assay. The class given is biochemical, human. The settings on record: for stabilizing / destabilizing compound (as listed 'in an aspect'): stabilizing = less, destabilizing = more degradation in an enzymatic assay than control. As to the method:
The procedure was adapted from a published protocol for exonucleolytic enzymatic degradation assay. (Donlic A, et al. (2020) Nucleic Acids Res. 48(14):7653-7664). The MALAT1 destabilizing small molecules published by Le Grice (Abulwerdi F A, et al. (2019) ACS Chem Biol. 14(2):223-235) and co-workers SM5 and SM16 were purchased from ChemBridge. For a typical 70 μL reaction, […] of MALAT1 triple helix RNA was annealed in the same buffer used for IDA and DSF experiments (20 mM HEPES-KOH, 52 mM KCl, 0.1 mM MgCl2, pH=7.4) by heating at 95° C. for 3 minutes, snap-cooling on ice for 10 minutes, and leaving the solution at room temperature for 1 hr.
RNase A enzyme (ThermoFisher) was diluted to 1.46 nM and incubated with 1 M NaCl for 30-35 minutes to achieve ssRNA selectivity as reported. (Struhl K, et al. (1989) Current Protocols in Molecular Biology. 8(1):3.13.1-3.13.3). Next, the RNA was mixed with 0.2 μM of a GC-rich DNA duplex, […] of small molecule/DMSO and incubated at room temperature for 20 minutes. Following the incubation, […] of RNase A was added, and the reaction was incubated at 37° C. for 1 hour in a thermal cycler with a heated lid (Eppendorf). 4 μL timepoint aliquots were taken at 0, 5, 10, 30, and 60 minutes, 4 μL of 2×RNA loading dye was added to each aliquot (ThermoFischer Scientific), and samples were stored at −80° C. prior to gel analysis. Reactions were analyzed on pre-cast 15% PAGE-Urea gels (Invitrogen) in 1×TBE buffer. Aliquots were thawed from −80° C. storage and heated to 95° C. for 15 minutes prior to gel loading and […] were loaded in each well. Gels were run for 45 minutes at 180 V, stained with Diamond™ Nucleic Acid dye (Promega), and visualized on an iBright 500 (ThermoFisher). DMSO controls were ran with every set of 4 small molecules to ensure consistency of enzyme activity and RNA integrity. Gel band intensity of the MALAT1 triple helix and DNA loading control were quantified using ImageJ software. (Rueden C T, et al. (2017) BMC Bioinformatics. 18(1):529).
To quantify time-dependent endonucleolytic degradation for each sample, the intensity was normalized using Equation (3), and fold-difference was calculated as listed in Equation (4) as previously reported. (Donlic A, et al. (2020) Nucleic Acids Res. 48(14):7653-7664).
where y is normalized RNA area for a specific time point and the sample (tx), TH (triple helix). Area is the raw band intensity for the RNA in the lane corresponding to time point x for that sample, LC (loading control). Area (t0) is the raw band intensity for the DNA in the lane corresponding to the 0 minute time point for the sample, and LC Area (tx) is the raw band intensity for the DNA in the lane corresponding to time point x for that sample.
where y is fold-difference of the exonucleolytic degradation for the specific sample, with normalized areas for its specific time point x and time point 0 calculated as described in Equation (3). Percent RNA degraded was calculated for every time point using Equation (5).
% RNA degraded=(Normalized area (t0)−Normalized area (tx))*100 (Equation 5)
Experimental results shown in FIG. 6C are plotted as three independent replicates and standard deviation between replicates as error bars. Relative fold change between treated condition and DMSO was calculated from Equation (6).
The library was screened using a more biologically relevant in vitro enzymatic degradation assay. Previous work evaluated the effect on triplex degradation of various ionic buffer conditions (Ageeli A A, et al. (2018) Nucleic Acids Res. 47(3):1468-1481) and a sub-set of DPF small molecules (Donlic A, et al. (2020) Nucleic Acids Res. 48(14):7653-7664) using E. coli RNase R exonuclease as it degrades from 3′ to 5′, reporting on the availability of the poly(A) tail normally sequestered in the triplex construct. […]

Where [4] appears, read: 5-minute time point, relative to DMSO control.

In the case of `N=C(NCCc1cccnc1)c1cccc(/N=N/Nc2cccc(C(=N)NCCc3cccnc3)c2)c1` [DMZ-M3], the “affinity for the MALAT1 triple helix (in words)” value (“affinity … (in words)” for short) in assay [1] is recorded as “moderate affinity”. Moreover, the “effect on MALAT1 triplex thermal stability (in words)” value (shortened to “effect … (in words)”) in assay [2] is reported as “negligible thermal stabilization”.
As to `N=C(NCc1ccco1)c1cccc(/N=N/Nc2cccc(C(=N)NCc3ccco3)c2)c1` [DMZ-M15], the “affinity … (in words)” value in assay [1] is recorded as “moderate affinity”. Besides, in assay [2], the “effect … (in words)” value was “negligible thermal stabilization”.
`CN(C)c1ccc(CN2CCC(CCNC(=N)c3ccc(/N=N/N(C)c4ccc(C(=N)NCCC5CCN(Cc6ccc(N(C)C)cc6)CC5)cc4)cc3)CC2)cc1` [DMZ-NMe-P38]: the “stabilizing / destabilizing compound (as listed 'in an aspect')” value (shortened to “stabilizing / destabilizing compound”) in assay [3] is recorded as “destabilizing”.
Turning to `CN(/N=N/c1ccc(C(=N)NCCC2CCN(Cc3ccccc3)CC2)nc1)c1ccc(C(=N)NCCC2CCN(CC3C=CC=CC3)CC2)nc1` (stereo not drawn) [DMZ-NMe-mPy-P1], the “stabilizing / destabilizing compound” value in assay [3] is given as “destabilizing”.
In the case of `N=C(NCc1ccccc1)c1ccccc1/N=N/Nc1ccccc1C(=N)NCc1ccccc1` [DMZ-O4], the “affinity … (in words)” value in assay [1] is given as “no affinity”.
As for `N=C(NCc1ccc(Cl)cc1)c1ccccc1/N=N/Nc1ccccc1C(=N)NCc1ccc(Cl)cc1` [DMZ-O5], the “stabilizer / destabilizer classification by RNase A degradation” value (“stabilizer / destabilizer classification” below) in assay [3] (setting [4]) is “much stronger destabilizing effect”. In assay [3], the “stabilizing / destabilizing compound” value was “stabilizing; also recorded: destabilizing”.
Turning to `N=C(N)c1ccc(/N=N/Nc2ccc(C(=N)N)cc2)cc1` [DMZ-P0, diminazene, reference compound], the “effect … (in words)” value in assay [2] is listed as “increases in thermal stability”. For the same compound, in assay [3] (setting [4]), the “stabilizer / destabilizer classification” value is recorded as “destabilizers”.
For the compound `CN(C)CCCNC(=N)c1ccc(/N=N/Nc2ccc(C(=N)NCCCN(C)C)cc2)cc1` [DMZ-P1], the “effect … (in words)” value in assay [2] is recorded as “increases in thermal stability”. For the same compound, in assay [2] (equimolar RNA:small molecule, versus DMSO vehicle), the “effect on Tm1 (ΔTm1, first melting peak)” value was “approximately 6.1 °C”. Also, in assay [3] (setting [4]), the “stabilizer / destabilizer classification” value is on record as “destabilizers” and the “strength class of stabilizer / destabilizer (change in degradation)” value is given as “weak destabilizer (weak destabilizer (<50% increase in degradation))”.
As to `N=C(NCc1ccc(Cl)cc1)c1ccc(/N=N/Nc2ccc(C(=N)NCc3ccc(Cl)cc3)cc2)cc1` [DMZ-P5], in assay [1] (subunit R-5: DMZ-P5 versus DMZ-O5), the “fold higher affinity, para scaffold versus ortho scaffold” value was 13 fold.
As for `CCCCNC(=N)c1ccc(/N=N/Nc2ccc(C(=N)NCCCC)cc2)cc1` [DMZ-P17], in assay [1], the “affinity … (in words)” value was “moderate affinity”. Also, the “effect … (in words)” value in assay [2] is “negligible thermal stabilization”.
